Series [1] is described as follows: PAMPA (parallel artificial membrane permeability assay). The following applies: membrane permeation rate (Pe), 50 mM MOPSO buffer pH 6.5 with 5.0% glycocholic acid, 37° C., 18 hours; for Papp at 18 hours, 50 µM: PAMPA, read-out: iPAMPA Pe. The class given is in vitro ADME. On the procedure:
4 μL of a phospholipid-organic solvent solution composed of 10% (w/v) of egg lecithin, 0.5% (w/v) of cholesterol and dodecane (all purchased from Fluka) was added to a Millipore 96-well membrane filter (hydrophobic PVDF (polyvinylidene difluoride), pore size 0.45 microm) (purchased from Millipore Japan) to make an artificial phospholipid membrane.
A DMSO solution containing the compound at a concentration of 10 mM was added in a percentage of 0.5% (v/v) to a 50 mM MOPSO buffer, pH 6.5, containing 5.0% (w/v) of glycocholic acid, and 330 μL of the mixture was added to a 96-well plate made of Teflon (donor plate). The above artificial phospholipid membrane plate was attached onto the donor plate, and 280 μL of a solution obtained by adding DMSO in a percentage of 0.5% (v/v) to a 50 mM MOPSO buffer, pH 6.5, containing 5.0% (w/w) of glycocholic acid was added onto the artificial phospholipid membrane (acceptor plate). These plates were allowed to stand at 37° C. for 18 hours, after which the concentrations of the compound in the solutions in the donor plate and the acceptor plate were measured by LC/MS or LC/UV, and the membrane permeation rate of the compound (Pe) was calculated by the following formulas (1) and (2), where t is the testing time, A is the membrane filter area, VD is the amount of the donor solution, VA is the amount of the acceptor solution, CD,t is the concentration of the compound in the donor solution at the time t, and CA,t is the concentration of the compound in the acceptor solution at the time t.
(In general: The PAMPA barrier holds no transporters, so it reflects passive diffusion.)

The nature of series [2]: Metabolic stability in human hepatic microsome. The class given is in vitro ADME. The note with it: microsomes, pH 7.4; human hepatic microsome, NADPH(+); read-out: CL NADPH(+).

Starred links: 1 amine or outer side, 2 acyl side, 3 side chain; linkers in the order of their positions; H or OH if unused. Positions of bridges follow the written chain, without caps; N, C: chain ends. Non-standard residues stand in square brackets, D forms with d. Residues, ends and D or L forms follow the SMILES beside them. *: point of attachment. Arg(Me2s) = CN=C(NC)NCCC[C@H](N)C(=O)O; Lys(Me2) = CN(C)CCCC[C@H](N)C(=O)O; NMeF = CN[C@@H](Cc1ccccc1)C(=O)O; NMeI = CC[C@H](C)[C@H](NC)C(=O)O; NMeβAla = CN(CCC(=O)[*:2])[*:1]; NMeL = CN[C@@H](CC(C)C)C(=O)O; NMeV = CN[C@H](C(=O)O)C(C)C; NMeA = CN[C@@H](C)C(=O)O; Piperidide = C1CCN(*)CC1; dNMeA = CN[C@H](C)C(=O)O; Aze = O=C(O)[C@@H]1CCN1; Sar = CNCC(=O)O

Turning to `CC[C@H](C)[C@H]1C(=O)N[C@@H](C(C)C)C(=O)N(C)[C@@H](Cc2ccccc2)C(=O)N[C@@H](CC(C)C)C(=O)N(C)[C@@H](Cc2ccccc2)C(=O)N[C@H](C(=O)N(C)[C@@H](Cc2ccccc2)C(=O)N[C@@H](C)C(=O)N[C@H](C(=O)N[C@@H](Cc2ccccc2)C(=O)N2CCCCC2)[C@@H](C)O)CC(=O)N[C@@H](C)C(=O)N[C@@H](CC(C)C)C(=O)N1C` [DP-572] (AL[NMeI]V[NMeF]L[NMeF]D[NMeF]ATF-Piperidide; lactam N-8), in series [1], the “iPAMPA Pe” value is reported as 1.0E−07.
Turning to `CC(C)C[C@@H]1NC(=O)[C@@H](C)N(C)C(=O)C[C@@H](C(=O)N(C)[C@@H](Cc2ccccc2)C(=O)N[C@@H](C)C(=O)N2CCCCC2)NC(=O)[C@H](Cc2ccccc2)N(C)C(=O)[C@H](CC(C)C)N(C)C(=O)[C@H](Cc2ccccc2)NC(=O)[C@H]([C@@H](C)O)NC(=O)[C@H](CC(C)C)N(C)C(=O)[C@H](CC(C)C)N(C)C1=O` [DP-359] ([dNMeA]L[NMeL][NMeL]TF[NMeL][NMeF]D[NMeF]A-Piperidide; lactam N-9), the Papp at 18 hours, 50 µM in series [1] was 43 ×10⁻⁶ cm/s.
Still for that read-out and setting: the figure for `CC(C)C[C@@H]1NC(=O)[C@H](Cc2ccccc2)N(C)C(=O)CCN(C)C(=O)C[C@@H](C(=O)N2CCCCC2)NC(=O)[C@H](Cc2ccccc2)N(C)C(=O)[C@H](C)N(C)C(=O)[C@H]([C@@H](C)O)NC(=O)CN(C)C(=O)[C@H](C(C)C)N(C)C(=O)[C@H](C)NC(=O)[C@H](C(C)C)N(C)C(=O)[C@H](CC(C)C)N(C)C1=O` [DP-318] ([NMeβAla][NMeF]L[NMeL][NMeV]A[NMeV][Sar]T[NMeA][NMeF]D-Piperidide; lactam N-12) is 26 ×10⁻⁶ cm/s; for `CC(C)C[C@@H]1NC(=O)[C@H](CCCCN(C)C)NC(=O)[C@H](Cc2ccccc2)N(C)C(=O)[C@H](CC(C)C)NC(=O)[C@H](CC(C)C)N(C)C(=O)[C@H](Cc2ccccc2)NC(=O)[C@H](CC(C)C)N(C)C(=O)[C@H](CC(C)C)N(C)C(=O)[C@H](Cc2ccccc2)NC(=O)CN(C)C(=O)C[C@@H](C(=O)N(C)[C@@H](Cc2ccccc2)C(=O)N[C@@H](C)C(=O)N2CCCCC2)NC1=O` [DP-594] ([Sar]F[NMeL][NMeL]F[NMeL]L[NMeF][Lys(Me2)]LD[NMeF]A-Piperidide; lactam N-11) it is 1.3 ×10⁻⁶ cm/s.
`C/N=C(\NC)NCCC[C@@H]1NC(=O)[C@H](Cc2ccccc2)N(C)C(=O)[C@H](CC(C)C)NC(=O)[C@H](CC(C)C)N(C)C(=O)[C@H](Cc2ccccc2)NC(=O)[C@H](CC(C)C)N(C)C(=O)[C@H](CC(C)C)N(C)C(=O)[C@H](Cc2ccccc2)NC(=O)CN(C)C(=O)C[C@@H](C(=O)N(C)[C@@H](Cc2ccccc2)C(=O)N[C@@H](C)C(=O)N2CCCCC2)NC(=O)[C@H](CC(C)C)NC1=O` [DP-598] ([Sar]F[NMeL][NMeL]F[NMeL]L[NMeF][Arg(Me2s)]LD[NMeF]A-Piperidide; lactam N-11): the “iPAMPA Pe” value in series [1] was determined as 1.0E−07.
Turning to `CC(C)C[C@@H]1NC(=O)[C@H](Cc2ccccc2)NC(=O)[C@H](CC(C)C)N(C)C(=O)[C@H](Cc2ccccc2)NC(=O)[C@@H](C)N(C)C(=O)C[C@@H](C(=O)N2CCCCC2)NC(=O)[C@H](Cc2ccccc2)N(C)C(=O)CNC(=O)[C@H]([C@@H](C)O)NC(=O)[C@H](CC(C)C)NC1=O` [DP-486] ([dNMeA]F[NMeL]FLLTG[NMeF]D-Piperidide; lactam N-10), the microsomal CLint at 1 uM in series [2] is 87 µL/min/mg.
Still for that read-out and setting: the figure for `C=C1CCC(=O)N(C)[C@@H](Cc2ccccc2)C(=O)N(C)[C@@H](CC(C)C)C(=O)N[C@@H]([C@@H](C)O)C(=O)N(C)[C@@H](C)C(=O)NCC(=O)N(C)[C@@H](CC(C)C)C(=O)N(C)[C@@H](CC(C)C)C(=O)N(C)[C@@H](CC(C)C)C(=O)N[C@H](C(=O)N2CCCCC2)Cc2ccc1cc2` [DP-845] is 248 µL/min/mg; for `CC(C)C[C@@H]1NC(=O)[C@H](CC(C)C)NC(=O)[C@H](C)N(C)C(=O)C[C@@H](C(=O)N2CCCCC2)NC(=O)[C@H](C(C)C)N(C)C(=O)[C@H](CC(C)C)NC(=O)[C@H](Cc2ccccc2)NC(=O)[C@H]([C@@H](C)O)NC(=O)[C@@H]2CCN2C(=O)[C@H](CC(C)C)NC(=O)[C@H](C)NC1=O` [DP-548] ([NMeA]LLAL[Aze]TFL[NMeV]D-Piperidide; lactam N-11) it is 16 µL/min/mg.

(Values after patent US9409952B2, “Peptide-compound cyclization method” (Chugai Seiyaku Kabushiki Kaisha, priority 2011, dated 2016).)
